In patent US20260062447A1, “COMPOUNDS” (UNIVERSITY OF SOUTHAMPTON, priority 2022, published 2026):
Where a SMILES comes first, the peptide text is derived from it. [ ]: non-standard residue; d: D form. Phe(4-CF3) = N[C@@H](Cc1ccc(C(F)(F)F)cc1)C(=O)O; Phe(4-Br) = N[C@@H](Cc1ccc(Br)cc1)C(=O)O; Nle = CCCC[C@H](N)C(=O)O

Tests used:
[1] = molecular target: HIF-1 three-domain protein binding to FAM-HRE; experiment: Fluorescence polarization assay of HIF-1 binding to FAM-HRE; type: biochemical; details: for IC50: FP assay, read-out: IC50 of inhibition of HIF DNA (FAM-HRE) binding
Protocol: HIF-1 three-domain protein was thawed on ice and diluted to 150 nM in HIF FP buffer. Compounds for analysis were serially diluted in DMSO to give 10× stocks. The compounds (10 μL, 100% DMSO) were then added to the protein (80 μL). The samples were then incubated at room temperature for 30 minutes. FAM-HRE (10 μL, 20 nM) was then added and the samples loaded into a 384 well solid black non-binding microplate (Corning, USA). The fluorescence polarization of each well was then measured using gain and focus settings optimized by the used software set to a signal of 400 mP on a control well.
An FP assay utilizing a FAM labelled HRE was used and CK-NL-F(CF3)IF(Br) assessed.
HIF-1 three-domain protein was thawed on ice and diluted to 150 nM in HIF FP buffer. Compounds for analysis were serially diluted in DMSO to give 10× stocks. The compounds (10 μl, 100% DMSO) were then added to the protein (80 μL). The samples were then incubated at room temperature for 30 minutes. FAM-HRE (10 μL, 20 nM) was then added and the samples loaded into a 384 well solid black non-binding microplate (Corning, USA). The fluorescence polarization of each well was then measured using gain and focus settings optimized by the used software set to a signal of 400 mP on a control well.

[2] = molecular target: HIF-1α PAS-B domain (Homo sapiens, UniProt Q16665); experiment: Microscale thermophoresis (MST) binding to HIF-1α PAS-B domain; details: for binding affinity by MST, in words: compared within the derivative series or to the unsubstituted peptide
Chain of HIF-1α PAS-B domain (Q16665 238-349 limits assumed): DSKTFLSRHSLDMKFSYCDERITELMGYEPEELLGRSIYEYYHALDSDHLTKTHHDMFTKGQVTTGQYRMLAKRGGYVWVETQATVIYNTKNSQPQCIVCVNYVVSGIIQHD
Protocol: The impact of these substitutions on the binding affinity was then assessed by MST.
An aliquot of labelled HIF-1α PAS-B was thawed on ice and diluted to 50 nM with HIF MST assay buffer, before being centrifuged at 12,000 rpm for 15 minutes. […] Samples were loaded into NanoTemper® Monolith NT.115 premium treated capillaries and measurements were carried out using a Monolith NT.115 system at 25° C. using 50% MST power and 50% LED power. Data was analysed by NanoTemper® analysis software. Binding curves were fitted using GraphPad Prism 8 software.

[3] = tested on: HIF-1a driven transcription in U2OS HRE readout cell line; experiment: U2OS HRE readout assay (EYFP expression); type: cell-based
[4] = molecular target: T1, HIF-1α PAS-B domain mutant C255A (Homo sapiens, UniProt Q16665, C255A); experiment: MST binding to cysteine mutant HIF-1α PAS-B C255A; details: site-directed mutagenesis
T1 construct: made in house
T1 sequence (Q16665 238-349 C255A limits assumed): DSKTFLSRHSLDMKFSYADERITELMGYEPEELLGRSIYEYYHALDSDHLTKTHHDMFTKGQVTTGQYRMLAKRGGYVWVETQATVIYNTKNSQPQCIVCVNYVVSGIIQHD
Protocol: (§1) One rationalization would be that the peptide binding is disulphide-mediated. Whilst this was thought to be unlikely as all assays were performed in the presence of the reducing agent TCEP, it was decided that the possibility would be further investigated via site-directed mutagenesis (SDM). The three cysteine residues within the HIF-1α PAS-B domain were sequentially mutated to alanine. The affinity of cyclo-CLLFVY for the resultant mutant proteins C255A, C344A and C337A was then assessed by MST.
(§2) An aliquot of labelled HIF-1α PAS-B was thawed on ice and diluted to 50 nM with HIF MST assay buffer, before being centrifuged at 12,000 rpm for 15 minutes. The compound was then serially diluted in DMSO to give 10× stocks. These were then diluted 1:5 in HIF MST assay buffer to give 2× stocks, before finally being mixed 1:1 (v/v) with the labelled protein to give a final concertation of 25 nM protein and a final DMSO content of 10%. Samples were loaded into NanoTemper® Monolith NT.115 premium treated capillaries and measurements were carried out using a Monolith NT.115 system at 25° C. using 50% MST power and 50% LED power. Data was analysed by NanoTemper® analysis software. Binding curves were fitted using GraphPad Prism 8 software.

[5] = tested on: HIF-1α PAS-B domain mutant C344A; experiment: MST binding to cysteine mutant HIF-1α PAS-B C344A; details: site-directed mutagenesis
Protocol: as §1, §2

[6] = molecular target: T2, HIF-1α PAS-B domain mutant C337A (Homo sapiens, UniProt Q16665, C337A); experiment: MST binding to cysteine mutant HIF-1α PAS-B C337A; details: site-directed mutagenesis
T2 construct: made in house
T2 sequence (Q16665 238-349 C337A limits assumed): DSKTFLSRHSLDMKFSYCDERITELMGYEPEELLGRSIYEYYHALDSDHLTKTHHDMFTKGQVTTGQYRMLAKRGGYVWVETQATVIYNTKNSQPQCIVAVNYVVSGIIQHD
Protocol: as §1, §2

[7] = Cytotox-Glo toxicity assay; type: cell-based; details: doses 50 uM
[8] = tested on: HIF-1a driven transcription in Panc HRE readout cell line; experiment: Panc HRE readout cell line (EYFP expression); type: cell-based
[9] = molecular target: T3, His-HIF-1α PAS-B domain with FLAG-HIF-1β PAS-B domain (Homo sapiens, UniProt Q16665); experiment: ELISA of HIF-1α PAS-B / HIF-1β PAS-B heterodimerization; type: biochemical; details: read-out: IC50 of disruption of HIF-1α-HIF-1β PAS-B-PAS-B dimer formation
T3 construct: heterodimerization of His-HIF-1α PAS-B domain with FLAG-HIF-1β PAS-B domain analysed by ELISA
T3 sequence (Q16665 238-349 limits assumed): as the sequence (Q16665 238-349 limits assumed) above
Protocol: FIG. 9‥Effects of (CONC) CK-n-leu-F(CF3)IF(Br) [SEQ ID NO: 40 Cys lys NL phe(CF3) ile phe(Br)] on the heterodimerization of His-HIF-1α PAS-B domain with FLAG-HIF-1β PAS-B domain analysed by ELISA.
The ability of CK-n-leu-F(CF3)IF(Br) to disrupt the HIF-1α-HIF-1β PAS-B-PAS-B PPI was then assessed via an ELISA assay.
To each well of a clear Pierce nickel coated 96-well plate (Thermo Scientific), purified Hiss-HIF-1α PAS-B protein in HIP buffer was added (25 μL, 0.1 μM), the plate was then incubated for 1 hr at RT with rocking. The wells were then washed 2× with HIF buffer (150 μL) and 1× with PBS Tween (0.05% Tween 20, 150 μL). 2% milk in PBS Tween (150 μL) was then added to each well and incubated for 1 hr at RT with rocking as a blocking step. The wells were then washed 2×PBS Tween (150 μL) and 1× with HIF buffer (150 μL). For HIF-B dimerisation a serial dilution of HIF-1β PAS-B ranging from 250 μM to 11 nM in HIF buffer (100 μL) was then added. […] The plate was then incubated at RT for 1 hr with rocking. The wells were then washed 2× with HIF buffer (150 μL) and 1× with PBS Tween (150 μL), A 1:1000 dilution of mouse anti-flag antibody in 2% milk PBS Tween (50 μL) was then added to each well and the plate incubated for a further hour at RT with rocking. […] H2SO4(aq) (2 M, 100 μL) was then added to each well and the absorbance at 450 nm determined on a BMG Clariostar plate reader.

[10] = tested on: HIF-1α nuclear localization; experiment: HIF-1α immunofluorescence (nuclear localization); type: cell-based
Excerpt: (§3) FIG. 11—A) Structure of cyclic peptide that incorporates a coumaryl motif at the phenylalanine position CLL-Cou-VY [SEQ ID NO: 39 Cys leu leu cou val tyr]. B) MST analysis of CLL-Cou-VY. C) The peptide was seen to be internalized in HeLa cells upon visualization with PMT detection at 405 nm. […] E) HIF-1α immunofluorescence under control conditions showing that without treatment HIF-1a localizes to the nucleus.

[11] = tested on: HeLa cells; experiment: Cell internalization of the fluorescent peptide, PMT detection at 405 nm; type: cell-based
Excerpt: as §3
We therefore made a peptide with a coumaryl motif incorporated at the phenylalanine position the compound, CLL-Cou-VY, shown in FIG. 11 was seen to be internalized in HeLa cells upon visualization with PMT detection at 405 nm.

CC(C)C[C@@H]1NC(=O)[C@H](CS)NC(=O)[C@H](Cc2ccc(Br)cc2)NC(=O)[C@H](C(C)C)NC(=O)[C@H](Cc2ccc(C(F)(F)F)cc2)NC(=O)[C@H](CC(C)C)NC1=O [CLLF(CF3)IF(Br), Cys leu leu phe(CF3) ile phe(4-Br)]
IC50 [1]: 11.8 ± 1.1 µM | binding affinity by MST, in words [2]: best affinity

CCCC[C@@H]1NC(=O)[C@H](CC(C)C)NC(=O)[C@H](CS)NC(=O)[C@H](Cc2ccc(Br)cc2)NC(=O)[C@H]([C@@H](C)CC)NC(=O)[C@H](Cc2ccc(O)cc2)NC1=O [CL-n-leu-F(CF3)IF(Br), Cys leu n-leu phe(CF3) ile phe(4-Br)] (cyclo(CL[Nle]YI[Phe(4-Br)]))
expression of EYFP [3]: inhibited the expression of EYFP

CC(C)C[C@@H]1NC(=O)[C@H](CS)NC(=O)[C@H](Cc2ccc(O)cc2)NC(=O)[C@H](C(C)C)NC(=O)[C@H](Cc2ccc3ccccc3c2)NC(=O)[C@H](CC(C)C)NC1=O [Nal, Cys leu leu Nal val tyr]
fold improvement in affinity compared to the parent peptide CLLFVY ([2]; MST Kd relative to CLLFVY): 6 fold

CC(C)C[C@@H]1NC(=O)[C@H](CC(C)C)NC(=O)[C@@H](CS)NC(=O)[C@H](Cc2ccc(O)cc2)NC(=O)[C@H](C(C)C)NC(=O)[C@H](Cc2ccccc2)NC1=O [D-cysteine, d-cys leu leu phe val tyr]
binding affinity by MST, in words [2]: comparable affinities

CC(C)C[C@@H]1NC(=O)[C@H](CS)NC(=O)[C@H](Cc2ccc(O)cc2)NC(=O)[C@H](C(C)C)NC(=O)[C@H](Cc2ccccc2)NC(=O)[C@H](CC(C)C)NC1=O [CLLFVY, Cys leu leu phe val tyr]
IC50 [1]: 76.5 ± 8 µM | binding activity for mutant protein C255A [4]: binding activity is retained | binding activity for mutant protein C344A [5]: binding activity is retained | binding activity for mutant protein C337A [6]: binding activity is retained

NC(CCS)C(=O)O (centres unmarked) [homocysteine, h-cys leu leu phe val tyr]
binding affinity by MST, in words [2]: comparable affinities

CCCC[C@@H]1NC(=O)[C@H](CCCCN)NC(=O)[C@H](CS)NC(=O)[C@H](Cc2ccc(Br)cc2)NC(=O)[C@H]([C@@H](C)CC)NC(=O)[C@H](Cc2ccc(C(F)(F)F)cc2)NC1=O [CK-n-leu-F(CF3)IF(Br), Cys lys n-leu phe(CF3) ile phe(4-Br)] (cyclo(CK[Nle][Phe(4-CF3)]I[Phe(4-Br)]))
toxicity [7]: not toxic | compatibility with FP assay / direct binding to FAM-HRE ([1]; peptide itself with FAM labelled HRE): bind to the FAM-HRE directly | expression of EYFP [8]: inhibited the expression of EYFP | IC50 [9]: 27.7 ± 14 µM | Kd ([2]; MST, HIF-1α PAS-B domain): 1.66 ± 0.3 µM

CC(C)C[C@@H]1NC(=O)[C@H](CS)NC(=O)[C@H](Cc2ccc(O)cc2)NC(=O)[C@H](C(C)C)NC(=O)[C@H](CCc2cc(=O)oc3cc(O)ccc23)NC(=O)[C@H](CC(C)C)NC1=O [CLL-Cou-VY, Cys Leu Leu Cou Val Tyr]
effect on HIF-1α nuclear localization [10]: preventing HIF-1α nuclear localization | internalization in cells [11]: internalized
